Where two headings read alike, the source gives them in different places.
How the values were obtained:
Tetranychus urticae = Tetranychus urticae spray test, OP-resistant (bean leaf discs); assay type: in vivo; conditions: 500 g/ha, after 6 days
Protocol: 4. Tetranychus urticae—Spray Test, OP-Resistant
Solvent: 78.0 parts by weight of acetone
• 1.5 parts by weight of dimethylformamide Emulsifier: alkylaryl polyglycol ether
To produce further test concentrations, the preparation is diluted with emulsifier-containing water.
After 6 days, the efficacy in % is determined. 100% means that all the spider mites have been killed; 0% means that none of the spider mites have been killed.

[1] = log P by reversed-phase HPLC analogously to OECD Guideline 117; assay type: physicochemical; conditions: for logP (HCOOH): pH 2.7; for logP (neutral): pH 7.8
Protocol: The log P values were determined analogously to OECD Guideline 117 (EC Directive 92/69/EEC) by HPLC (high-performance liquid chromatography) using reversed-phase columns (C 18), by the following methods:
[a] The LC-MS determination in the acidic range is effected at pH 2.7 with 0.1% aqueous formic acid and acetonitrile (contains 0.1% formic acid) as eluents; linear gradient from 10% acetonitrile to 95% acetonitrile. log P^[…] is also referred to as log P(HCOOH). [b] LC-MS determination in the neutral range is effected at pH 7.8 with 0.001 molar aqueous ammonium hydrogencarbonate solution and acetonitrile as eluents; linear gradient from 10% acetonitrile to 95% acetonitrile. log P^[…] is also referred to as log P(neutral).
Calibration is effected with solutions of a homologous series of unbranched alkan-2-ones (having 3 to 16 carbon atoms) with known log P values (log P values determined on the basis of the retention times by linear interpolation between two successive alkanones).

[2] = reversed-phase C18 HPLC column, acidic range, pH 2.7, 0.1% aqueous formic acid/acetonitrile, read-out: logP (HCOOH)
[3] = reversed-phase C18 HPLC column, neutral range, pH 7.8, 0.001 molar aqueous ammonium hydrogencarbonate/acetonitrile, read-out: logP (neutral)
[4] = acidic range, pH 2.7, 0.1% aqueous formic acid/acetonitrile, read-out: logP (HCOOH)

logP (HCOOH) [1] | Structure (SMILES) | efficacy (spider mites killed) (Tetranychus urticae) [%] | other results
– | Cc1cc(F)c(-n2cnc(C3CC3)cc2=O)cc1[S+]([O-])CC(F)(F)F (racemic) [Example 7] | 100 | –
– | CCc1cc(=O)n(-c2cc([S+]([O-])CC(F)(F)F)c(C)cc2F)cn1 (racemic) [Example 10] | 100 | –
– | Cc1cc(C)c([S+]([O-])CC(F)(F)F)cc1-n1c(C)nc(C(F)(F)F)cc1=O (racemic) [Example 14] | 100 | –
– | CCc1cc(=O)n(-c2ccc(C)c([S+]([O-])CC(F)(F)F)c2)cn1 (racemic) [Example 17] | 100 | –
– | Cc1cc(F)c(-n2c(C)nc(C(F)(F)F)cc2=O)cc1[S+]([O-])CC(F)(F)F (racemic) [Example 19] | 100 | –
– | CCc1cc(=O)n(-c2cc([S+]([O-])CC(F)(F)F)c(C)cc2C)cn1 (racemic) [Example 24] | 90 | –
– | Cc1ccc(-n2cnccc2=O)cc1[S+]([O-])CC(F)(F)F (racemic) [Example 28] | 90 | –
– | O=c1cc(C(F)(F)F)ncn1-c1cc([S+]([O-])CC(F)(F)F)c(Cl)cc1F (racemic) [Example 29] | 100 | –
– | Cc1cc(C)c([S+]([O-])CC(F)(F)F)cc1-n1cnc(C2CC2)cc1=O (racemic) [Example 35] | 90 | –
– | Cc1cc(C)c([S+]([O-])CC(F)(F)F)cc1-n1cnc(C)c(C)c1=O (racemic) [Example 48] | 90 | –
– | Cc1cc(F)c(-n2cnc(C(C)C)cc2=O)cc1[S+]([O-])CC(F)(F)F (racemic) [Example 52] | 100 | –
– | Cc1cc(F)c(-n2c(C)nc(C(F)(F)F)cc2=O)cc1SCC(F)(F)F [Example 8] | 100 | –
– | Cc1cc(C)c(-n2cnc(C)c(C)c2=O)cc1SCC(F)(F)F [Example 13] | 100 | –
– | O=c1cc(C(F)(F)F)ncn1-c1cc(SCC(F)(F)F)c(Br)cc1F [Example 15] | 100 | –
– | O=c1cc(C(F)(F)F)ncn1-c1cc(SCC(F)(F)F)c(Cl)cc1F [Example 16] | 100 | –
– | Cc1cc(=O)n(-c2cc(SCC(F)(F)F)c(C)cc2C)cn1 [Example 20] | 100 | –
– | Cc1cc(C)c(-n2cnc(C3CC3)cc2=O)cc1SCC(F)(F)F [Example 23] | 100 | –
– | Cc1cc(F)c(-n2cnc(C(C)C)cc2=O)cc1SCC(F)(F)F [Example 31] | 100 | –
– | Cc1cc(F)c(-n2cnc(C(F)F)cc2=O)cc1SCC(F)(F)F [Example 32] | 100 | –
– | Cc1cc(C)c(-n2cnc(C(F)(F)C(F)(F)F)cc2=O)cc1SCC(F)(F)F [Example 36] | 100 | –
– | Cc1cc(F)c(-n2cnc(C3CC3)cc2=O)cc1SCC(F)(F)F [Example 37] | 100 | –
– | CCc1cc(=O)n(-c2cc(SCC(F)(F)F)c(C)cc2C)cn1 [Example 39] | 100 | –
– | CCc1cc(=O)n(-c2ccc(C)c(SCC(F)(F)F)c2)cn1 [Example 43] | 90 | –
– | Cc1cc(C)c(-n2cnc(C(C)(F)F)cc2=O)cc1SCC(F)(F)F [Example 51] | 100 | –
– | O=c1cc(C(F)(F)F)ncn1-c1ccc(Cl)c(SCC(F)(F)F)c1 [Example 54] | 100 | –

logP (HCOOH) [1] | Structure (SMILES) | efficacy (spider mites killed) (Tetranychus urticae) [%] | other results
– | CCc1cc(=O)n(-c2cc(SCC(F)(F)F)c(C)cc2F)cn1 [Example 57] | 100 | –
– | Cc1cc(F)c(NC(=O)/C=C(\N)C(F)(F)F)cc1SCC(F)(F)F [IIa-1, 3-Amino-4,4,4-trifluoro-N-{2-fluoro-4-methyl-5-[(2,2,2-trifluoroethyl)sulphanyl]phenyl}but-2-enamide] | – | chromatographic logP [1, 2]: 3.61; chromatographic logP [1, 3]: 3.6
– | Cc1cc(C)c(SCC(F)(F)F)cc1NC(=O)/C=C(\N)C(F)(F)F [IIa-2, 3-Amino-N-[2,4-dimethyl-5-(2,2,2-trifluoroethylsulphanyl)phenyl]-4,4,4-trilluorobut-2-enamide] | – | chromatographic logP [1, 2]: 3.63; chromatographic logP [1, 3]: 3.61
4.24 | NC(=CC(=O)Nc1cc(SCC(F)(F)F)c(Cl)cc1Cl)C(F)(F)F [IIa-3] | – | logP (neutral) [1]: 4.13
3.83 | NC(=CC(=O)Nc1cc(SCC(F)(F)F)c(Cl)cc1F)C(F)(F)F [IIa-4] | – | logP (neutral) [1]: 3.73
3.88 | NC(=CC(=O)Nc1cc(SCC(F)(F)F)c(Br)cc1F)C(F)(F)F [IIa-5] | – | logP (neutral) [1]: 3.78
3.58 | Cc1ccc(NC(=O)C=C(N)C(F)(F)F)cc1SCC(F)(F)F [IIa-6] | – | logP (neutral) [1]: 3.49
3.66 | NC(=CC(=O)Nc1ccc(Cl)c(SCC(F)(F)F)c1)C(F)(F)F [IIa-7] | – | logP (neutral) [1]: 3.65
4.05 | Cc1cc(Cl)c(NC(=O)C=C(N)C(F)(F)F)cc1SCC(F)(F)F [IIa-8] | – | logP (neutral) [1]: 3.99
3.23 | Cc1cc(F)c(NC(=O)C=C(N)C(F)F)cc1SCC(F)(F)F [IIa-9] | – | logP (neutral) [1]: 3.21
3.24 | Cc1cc(C)c(SCC(F)(F)F)cc1NC(=O)C=C(N)C(F)F [IIa-10] | – | logP (neutral) [1]: 3.15
3.55 | Cc1cc(F)c(NC(=O)C=C(N)C(C)(F)F)cc1SCC(F)(F)F [IIa-11] | – | logP (neutral) [1]: 3.49
3.52 | Cc1cc(C)c(SCC(F)(F)F)cc1NC(=O)C=C(N)C(C)(F)F [IIa-12] | – | logP (neutral) [1]: 3.40
– | Cc1cc(F)c(NC(=O)/C=C(\O)C(F)(F)F)cc1SCC(F)(F)F [XXXI-1, 4,4,4-Trifluoro-N-{2-fluoro-4-methyl-5-[(2,2,2-trifluoroethyl)sulphanyl]phenyl}-3-hydroxybut-2-enamide] | – | chromatographic logP [1, 4]: 2.77; chromatographic logP [1, 3]: 1.43
– | Cc1cc(C)c(SCC(F)(F)F)cc1NC(=O)/C=C(\O)C(F)(F)F [XXXI-2, N-[2,4-Dimethyl-5-(2,2,2-trifluoroethylsulphanyl)phenyl]-4,4,4-trifluoro-3-hydroxybut-2-enamide] | – | chromatographic logP [1, 4]: 2.87
3.13 | O=C(C=C(O)C(F)(F)F)Nc1cc(SCC(F)(F)F)c(Cl)cc1Cl [XXXI-3] | – | –
2.86 | O=C(C=C(O)C(F)(F)F)Nc1cc(SCC(F)(F)F)c(Cl)cc1F [XXXI-4] | – | logP (neutral) [1]: 1.45
2.93 | O=C(C=C(O)C(F)(F)F)Nc1cc(SCC(F)(F)F)c(Br)cc1F [XXXI-5] | – | –
2.80 | Cc1ccc(NC(=O)C=C(O)C(F)(F)F)cc1SCC(F)(F)F [XXXI-6] | – | –
2.84 | O=C(C=C(O)C(F)(F)F)Nc1ccc(Cl)c(SCC(F)(F)F)c1 [XXXI-7] | – | –
3.01 | Cc1cc(Cl)c(NC(=O)C=C(O)C(F)(F)F)cc1SCC(F)(F)F [XXXI-8] | – | logP (neutral) [1]: 1.44
2.47 | Cc1cc(F)c(NC(=O)C=C(O)C(F)F)cc1SCC(F)(F)F [XXXI-9] | – | –
2.53 | Cc1cc(C)c(SCC(F)(F)F)cc1NC(=O)C=C(O)C(F)F [XXXI-10] | – | –
2.72 | Cc1cc(F)c(NC(=O)C=C(O)C(C)(F)F)cc1SCC(F)(F)F [XXXI-11] | – | –
– | Cc1cc(C)c(SCC(F)(F)F)cc1NC(=O)C=C(O)C(F)(F)C(F)(F)F [XXXI-14] | – | logP (neutral) [1]: 1.63

Reference: patent publication US10039282B2, “Six-membered C—N-bonded aryl sulphide and aryl sulphoxide derivatives as pesticides” (BAYER CROPSCIENCE AKTIENGESELLSCHAFT, priority 2013, dated 2018)
